Entries after “also recorded” stand apart in the source; their conditions may differ. Structures can show the parent of a compound that is named as a salt.
Key:
C57BL/6 mice = experiment: Topical application to depilated dorsal skin: hair length, dermal thickness, anagen follicles, follicle density; format: in vivo, mouse; conditions: for anagen hair cycle (anagen hair follicles by morphology) / follicle density (number of follicles per mm): topical once daily for 3 weeks; for hair length distribution histogram relative to control group: day 23, topical once daily
Description: We tested compounds to determine whether their topical application could induce anagen hair cycle and follicle density. Briefly, seven-week old C57BL/6 mice were used. […] Mice were induced to enter anagen phase by being depilated in the dorsal region. Compounds ([…]) were topically applied onto the dorsal skin once daily for 3 weeks. Three mice were used for each compound group. Approximately 30 hairs from each mouse were plucked at specific days (day 16, day 19, and day 23) and the hair length was measured. Additionally, skin samples for cryosectioning were obtained from the treated dorsal region of each mouse.
All compounds were resuspended in vehicle solution (1.2 propanediol:EtOH:H20 (40:20:40)). Compound concentrations were as follows: alprostadil 40 μg/mL; kaempferol 28.6 μg/mL; pramoxine 329.8 μg/mL; MG 624 45.13 μg/mL. Also tested was Gold Bond topical anesthetic cream. Latanoprost (150 μg/mL) was used as a positive control and AKT inhibitor A443654 (100 μM) was used as a negative control.
FIG. 19 is a series of photomicrographs and graphs showing that topical application of the indicated compounds induces dermal thickness. Dorsal skin of animals topically treated with compounds described above, then isolated, cryosectioned and stained with hematoxylin and eosin. Dermal thickness was manually measured randomly through the slices. A mean of three measurements through the slice were performed and about 20-30 slices were analyzed for each mouse within each compound group.
FIG. 20 is a series of photomicrographs and graphs showing that alprostadil, kaempferol, pramoxine, or MG 624 induces anagen hair cycle and follicle density. The density is expressed as number of follicles per mm whereas the anagen hair follicles are determined by morphology.

human SKPs [1] = experiment: Dose-response curves for proliferation of human SKPs in presence of EGF and FGF2; format: cell-based; conditions: for proliferation of human SKPs: 100 nM, compared to cells grown in the absence of the agent
Description: The proliferative effects of MG 624 on SKPs and neuroblastoma tumor initiating cells have also been studied in detail. Dose response curves for proliferation of human SKPs and neuroblastoma tumor initiating cells in response to MG 624 were generated in the presence of EGF and FGF2. At 200 nM MG 624, SKP cell proliferation is enhanced (FIG. 5).
To characterize enhancement of proliferation brought about by the agents identified above, dose-response curves for MG624, GSK3β, pramoxine, kaempferol, and alprostadil in presence of EGF and FGF2 were generated (FIGS. 6A-6E).

[2] = tested on: xenograft neuroblastoma tumors; experiment: Tumor formation, xenograft neuroblastoma tumors in vivo; design: species or system human; conditions: FIG. 4C
Sox2-EGFP mice = experiment: Single agent topical application, hair length in shaved Sox2-EGFP mice; format: in vivo, mouse; conditions: for hair length distribution histogram relative to control group: day 23, classes of 200 μm; for hair length: topical daily, days 16, 19 and 23, compared to control mice
Description: Sox2-EGFP mice, 7-8 weeks old, were shaved on the dorsal back to synchronize the hair cycle, and kaempferol (Kae) or alprostadil (Alp) was topically applied daily. Control mice were treated with vehicle only. At days 16, 19, and 23, about 30-40 hairs were plucked from each mouse, and their length was measured. Three or four mice were used in each group. […] Hair length promoted by the compounds on day 23 is shown in distribution histograms relative to the control group. Hair length was binned in classes of 200 μm, and each class was expressed as a percentage of total hair population.

human SKPs [3] = experiment: In vitro sphere assay, human SKPs from foreskin; format: cell-based; conditions: treated for seven days, Hoechst stain, compared to vehicle control
Description: (§1) FIG. 7 is a schematic illustration of the in vitro sphere assay. SKPs were isolated from mouse back, whisker and human foreskin and allowed to grow in spheres. After 2-3 passages, spheres were dissociated and 3000 cells were plated in each well of a 96-well plate. Cells were then treated in triplicate with different concentrations of drugs or only with vehicle DMSO. Drugs were applied again on day 3 and the number of spheres was analyzed on day 7.
as §1, with “SKPs” for “FIG. 7 is a schematic illustration of the in vitro sphere assay. SKPs”, “whisker,” for “whisker”, “96 well” for “96-well”, “or” for “or only”, “(DMSO) only.” for “DMSO.”, “and” for “and the”
Sphere size is […] with, and is thus a measure of, cell proliferation. SKPs were isolated from human foreskin and allowed to grow in spheres. After 2-3 passages, spheres were dissociated and 3000 cells were plated in each well of a 96 well plate. Cells were then treated in triplicate with (a) 100 nM of a single drug, (b) a combination of drugs in which each drug is present at a concentration of 100 nM, or (c) vehicle (DMSO). Drugs were applied again on day 3. To assess how well cells proliferate within the sphere, the size of spheres was analyzed on day 7. […]

Row | Structure (SMILES) | anagen hair cycle (anagen hair follicles by morphology) (C57BL/6 mice) | follicle density (number of follicles per mm) (C57BL/6 mice) | proliferation of human SKPs (human SKPs [1]) | SKP proliferation (human SKPs [1]; 200 nM) | tumor formation [2] | hair length distribution histogram relative to control group (Sox2-EGFP mice) | hair length (Sox2-EGFP mice) | hair length distribution histogram relative to control group (C57BL/6 mice) | size of human SKP spheres (human SKPs [3])
1 | CC[N+](CC)(CC)CCOc1ccc(/C=C/c2ccccc2)cc1.[I-] [MG 624] | induces | induces | enhanced proliferation | enhanced; also recorded: increased |  |  |  |  | 
2 | CC[C@]1(O)C[C@@H]2CN(CCc3c([nH]c4ccccc34)[C@@](C(=O)OC)(c3cc4c(cc3OC)N(C)[C@H]3[C@@](O)(C(=O)OC)[C@H](OC(C)=O)[C@]5(CC)C=CCN6CC[C@]43[C@@H]65)C2)C1 [vinblastine] |  |  |  |  | inhibition of tumor formation |  |  |  | 
3 | CCCCC[C@H](O)/C=C/[C@H]1[C@H](O)CC(=O)[C@@H]1CCCCCCC(=O)O [Alprostadil, alprostadil] | induces | induces | enhanced proliferation |  |  | shift to longer hair lengths | increase in hair length | shift versus longer hair length | increase the size of human SKP spheres
4 | O=c1c(O)c(-c2ccc(O)cc2)oc2cc(O)cc(O)c12 [Kaempferol] | induces | induces | enhanced proliferation |  |  | shift to longer hair lengths | increase in hair length | shift versus longer hair length | increase the size of human SKP spheres
5 | CCCCOc1ccc(OCCCN2CCOCC2)cc1 [Pramoxine hydrochloride, Pramoxine] | induces | induces | enhanced proliferation |  |  |  |  |  | 
